Source: article PMC11062894, “Protein-based bandpass filters for controlling cellular signaling with chemical inputs” (Nature Chemical Biology, 2023)
“And” between values parts separate entries of the source, which are not always exact repeats. Equal entries are not always repeated.

Test system: GEMS receptors with CBPvene (Bcl2–LD3 and Bcl2high variants), STAT3-driven SEAP in HEK293T cells
Assay: GEMS SEAP reporter assay, CBPvene (Bcl2high, LD3-v and Bcl2-v variants) with venetoclax
Type: cell-based
[1] = CBPVene-v4, Venetoclax 10000 nM
[2] = CBPVene-v4-Bcl2v2, Venetoclax 1 nM
[3] = CBPVene-v4-Bcl2v2, Venetoclax 3.16 nM
[4] = CBPVene-v4-Bcl2v2, Venetoclax 10 nM
[5] = CBPVene-v4-Bcl2v2, Venetoclax 31.6 nM
[6] = CBPVene-v4-Bcl2v2, Venetoclax 100 nM
[7] = CBPVene-v4-Bcl2v2, Venetoclax 316 nM
[8] = CBPVene-v4-Bcl2v2, Venetoclax 1000 nM
[9] = CBPVene-v4-Bcl2v2, Venetoclax 3160 nM
[10] = CBPVene-v4-Bcl2v2, Venetoclax 10000 nM
[11] = CBPVene-v4-LD3v1, Venetoclax 1 nM
[12] = CBPVene-v4-LD3v1, Venetoclax 3.16 nM

CC1(C)CCC(CN2CCN(c3ccc(C(=O)NS(=O)(=O)c4ccc(NCC5CCOCC5)c([N+](=O)[O-])c4)c(Oc4cnc5[nH]ccc5c4)c3)CC2)=C(c2ccc(Cl)cc2)C1 [Venetoclax]
Raw data of Independent repeat of CBPVene-v4 vs CBPVene-v4-LD3v1 (CBPVene-v4, Venetoclax 0.01 nM): 35.2999 and 34.8178 and 35.7656 | Normalized data Figure 5c (CBPVene-v4, Venetoclax 1 nM): 4.2459 and 4.713 and 4.374 | Normalized data Figure 5f (CBPVene-v4, Venetoclax 1 nM): 3.9625 and 4.391 and 3.175 | Raw data Figure 5c (CBPVene-v4, Venetoclax 1 nM): 40.3634 and 39.0365 and 35.7348 | Raw data Figure 5f (CBPVene-v4, Venetoclax 1 nM): 25.8055 and 26.2397 and 18.4029 | Raw data of Independent repeat of CBPVene-v4 vs CBPVene-v4-LD3v1 (CBPVene-v4, Venetoclax 1 nM): 38.7674 and 35.097 and 34.871 | Normalized data Figure 5c (CBPVene-v4, Venetoclax 3.16 nM): 3.941 and 4.809 and 4.361 | Normalized data Figure 5f (CBPVene-v4, Venetoclax 3.16 nM): 3.622 and 4.227 and 3.164 | Raw data Figure 5c (CBPVene-v4, Venetoclax 3.16 nM): 37.466 and 39.8351 and 35.629 | Raw data Figure 5f (CBPVene-v4, Venetoclax 3.16 nM): 23.589 and 25.2624 and 18.3382 | Raw data of Independent repeat of CBPVene-v4 vs CBPVene-v4-LD3v1 (CBPVene-v4, Venetoclax 3.16 nM): 37.9892 and 34.5814 and 35.8384 | Normalized data Figure 5c (CBPVene-v4, Venetoclax 10 nM): 8.251 and 9.2534 and 8.61 | Normalized data Figure 5f (CBPVene-v4, Venetoclax 10 nM): 5.138 and 5.367 and 4.508 | Raw data Figure 5c (CBPVene-v4, Venetoclax 10 nM): 78.4344 and 76.6512 and 70.3479 | Raw data Figure 5f (CBPVene-v4, Venetoclax 10 nM): 33.4586 and 32.0727 and 26.1315 | Raw data of Independent repeat of CBPVene-v4 vs CBPVene-v4-LD3v1 (CBPVene-v4, Venetoclax 10 nM): 40.747 and 40.7067 and 37.4113 | Normalized data Figure 5c (CBPVene-v4, Venetoclax 31.6 nM): 23.4087 and 23.5513 and 23.3621 | Normalized data Figure 5f (CBPVene-v4, Venetoclax 31.6 nM): 15.4727 and 18.6639 and 9.968 | Raw data Figure 5c (CBPVene-v4, Venetoclax 31.6 nM): 222.533 and 195.089 and 190.881 | Raw data Figure 5f (CBPVene-v4, Venetoclax 31.6 nM): 100.765 and 111.541 and 57.7785 | Raw data of Independent repeat of CBPVene-v4 vs CBPVene-v4-LD3v1 (CBPVene-v4, Venetoclax 31.6 nM): 75.7769 and 63.5945 and 72.9306 | Normalized data Figure 5c (CBPVene-v4, Venetoclax 100 nM): 64.2766 and 73.1224 and 63.32 | Normalized data Figure 5f (CBPVene-v4, Venetoclax 100 nM): 42.576 and 45.1446 and 47.2654 | Raw data Figure 5c (CBPVene-v4, Venetoclax 100 nM): 611.042 and 605.715 and 517.36 | Raw data Figure 5f (CBPVene-v4, Venetoclax 100 nM): 277.273 and 269.798 and 273.956 | Raw data of Independent repeat of CBPVene-v4 vs CBPVene-v4-LD3v1 (CBPVene-v4, Venetoclax 100 nM): 129.31 and 117.373 and 126.839 | Normalized data Figure 5c (CBPVene-v4, Venetoclax 316 nM): 100 | Normalized data Figure 5f (CBPVene-v4, Venetoclax 316 nM): 68.7371 and 83.2998 and 76.2167 | Raw data Figure 5c (CBPVene-v4, Venetoclax 316 nM): 950.644 and 828.357 and 817.055 | Raw data Figure 5f (CBPVene-v4, Venetoclax 316 nM): 447.645 and 497.825 and 441.762 | Raw data of Independent repeat of CBPVene-v4 vs CBPVene-v4-LD3v1 (CBPVene-v4, Venetoclax 316 nM): 169.324 and 158.179 and 180.661 | Normalized data Figure 5c (CBPVene-v4, Venetoclax 1000 nM): 99.3535 and 99.2484 and 89.7215 | Normalized data Figure 5f (CBPVene-v4, Venetoclax 1000 nM): 100 | Raw data Figure 5c (CBPVene-v4, Venetoclax 1000 nM): 944.498 and 822.131 and 733.074 | Raw data Figure 5f (CBPVene-v4, Venetoclax 1000 nM): 651.243 and 597.631 and 579.613 | Raw data of Independent repeat of CBPVene-v4 vs CBPVene-v4-LD3v1 (CBPVene-v4, Venetoclax 1000 nM): 146.952 and 139.539 and 151.905 | Normalized data Figure 5c (CBPVene-v4, Venetoclax 3160 nM): 79.357 and 89.4953 and 82.0208 | Normalized data Figure 5f (CBPVene-v4, Venetoclax 3160 nM): 65.0047 and 75.3611 and 76.07 | Raw data Figure 5c (CBPVene-v4, Venetoclax 3160 nM): 754.403 and 741.34 and 670.156 | Raw data Figure 5f (CBPVene-v4, Venetoclax 3160 nM): 423.338 and 450.382 and 440.912 | Raw data of Independent repeat of CBPVene-v4 vs CBPVene-v4-LD3v1 (CBPVene-v4, Venetoclax 3160 nM): 80.4284 and 77.0562 and 76.9119 | Normalized data Figure 5c [1]: 37.7692 and 41.8946 and 33.9505 | Normalized data Figure 5f [1]: 42.6019 and 46.7992 and 47.9312 | Raw data Figure 5c [1]: 359.051 and 347.036 and 277.394 | Raw data Figure 5f [1]: 277.442 and 279.687 and 277.816 | Raw data of Independent repeat of CBPVene-v4 vs CBPVene-v4-LD3v1 [1]: 30.3195 and 25.7432 and 26.899 | Normalized data Figure 5f [2]: 10.7266 and 9.876 and 10.4991 | Raw data Figure 5f [2]: 31.1918 and 36.3952 and 31.7379 | Normalized data Figure 5f [3]: 10.8133 and 9.981 and 9.46 | Raw data Figure 5f [3]: 31.4437 and 36.7806 and 28.5959 | Normalized data Figure 5f [4]: 12.5098 and 10.2311 and 12.3238 | Raw data Figure 5f [4]: 36.377 and 37.7021 and 37.2539 | Normalized data Figure 5f [5]: 23.9871 and 21.8452 and 18.9874 | Raw data Figure 5f [5]: 69.7518 and 80.5008 and 57.3972 | Normalized data Figure 5f [6]: 72.8611 and 61.7154 and 72.9933 | Raw data Figure 5f [6]: 211.871 and 227.425 and 220.652 | Normalized data Figure 5f [7]: 100 | Raw data Figure 5f [7]: 290.788 and 368.506 and 302.291 | Normalized data Figure 5f [8]: 80.3655 and 74.9934 and 84.5393 | Raw data Figure 5f [8]: 233.694 and 276.355 and 255.555 | Normalized data Figure 5f [9]: 44.2102 and 40.566 and 46.2986 | Raw data Figure 5f [9]: 128.558 and 149.488 and 139.957 | Normalized data Figure 5f [10]: 14.2742 and 12.3963 and 14.8986 | Raw data Figure 5f [10]: 41.5078 and 45.6809 and 45.0373 | Raw data of Independent repeat of CBPVene-v4 vs CBPVene-v4-LD3v1 (CBPVene-v4-LD3v1, Venetoclax 0.01 nM): 13.3313 and 13.792 and 13.1319 | Normalized data Figure 5c [11]: 19.7956 and 13.458 and 12.3801 | Raw data Figure 5c [11]: 19.1053 and 16.682 and 17.9097 | Raw data of Independent repeat of CBPVene-v4 vs CBPVene-v4-LD3v1 [11]: 12.6379 and 12.8648 and 13.2123 | Normalized data Figure 5c [12]: 17.4061 and 14.8696 and 11.4945 | Raw data Figure 5c [12]: 16.7992 and 18.4317 and 16.6285 | Raw data of Independent repeat of CBPVene-v4 vs CBPVene-v4-LD3v1 [12]: 10.9947 and 13.5809 and 10.4154 | Normalized data Figure 5c (CBPVene-v4-LD3v1, Venetoclax 10 nM): 20.3471 and 18.6998 and 14.8112
